SMILES strings stand for the structures.

The first assay has as its system HIV-1 (H9IIIB strain). Nature of the assay: Cell-based HIV infection assay using a reporter (Cell-Based), MT4-GFP cells. The conditions noted are these: Human immunodeficiency virus 1, MT4-GFP cells infected with HIV-1 H9IIIB; 50% normal human serum; mean of at least two independent experiments; read-out: Cell-based IP. The gist of the method:
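MT4-GFP cells (HIV LTR-driven GFP) infected 24 h with HIV-1 H9IIIB at low MOI, then washed and plated with compounds in RPMI + 50% normal human serum, 0.4% DMSO final. Green cells counted at 24 and 48 h; R0 = 48 h/24 h ratio, inhibition normalized to DMSO and triple-drug control; IC50 from 4-parameter fit.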
`N[C@@H](Cc1ccc(F)cc1)C(=O)Nc1cncc(F)c1CC[C@H]1CNCCN1S(=O)(=O)C1CC1` [Example 47, N-(4-{2-[(2S)-1-(cyclopropylsulfonyl)piperazin-2-yl]ethyl}-5-fluoropyridin-3-yl)-4-fluoro-L-phenylalaninamide]: the IC50 is 1200 nM.

Regarding `O=C(C[C@@H](c1ccc(F)cc1)c1cc(F)cc(F)c1)Nc1cncc(F)c1CC[C@H]1CNCCN1S(=O)(=O)c1ccc(OC(F)(F)F)cc1` [Example 314, (3S)-3-(3,5-difluorophenyl)-3-(4-fluorophenyl)-N-(5-fluoro-4-{2-[(2S)-1-{[4-(trifluoromethoxy)phenyl]sulfonyl}piperazin-2-yl]ethyl}pyridin-3-yl)propanamide], the IC50 was determined as 9.2 nM.

For the molecule `C[C@@H]1CN(S(=O)(=O)c2ccccc2)[C@@H](CCc2c(F)cccc2NC(=O)CC(c2ccc(F)cc2)c2ccc(F)cc2)CN1` [Example 88, N-(3-fluoro-2-{2-[(2S,5R)-5-methyl-1-(phenylsulfonyl)piperazin-2-yl]ethyl}phenyl)-3,3-bis(4-fluorophenyl) propanamide], the IC50 amounted to 520 nM.

Consider `N[C@H](C(=O)Nc1cccc(F)c1CC[C@H]1CNCCN1S(=O)(=O)c1ccccc1)[C@@H](c1ccc(Cl)c(F)c1)C1CCOCC1` [Example 37, (βR)-4-chloro-3-fluoro-N-(3-fluoro-2-{2-[(2S)-1-(phenylsulfonyl)piperazin-2-yl]ethyl}phenyl)-β-(tetrahydro-2H-pyran-4-yl)-L-phenylalaninamide], for which the IC50 is 46 nM.

On to `CC(=O)Nc1cccc(S(=O)(=O)N2CCNC[C@@H]2CCc2c(F)cncc2NC(=O)C[C@@H](c2ccc(F)cc2)c2cc(F)cc(F)c2)c1` [Example 320, (3S)-N-(4-{2-[(2S)-1-{[3-(acetylamino)phenyl]sul-fonyl}piperazin-2-yl]ethyl}-5-fluoropyridin-3-yl)-3-(3,5-difluorophenyl)-3-(4-fluorophenyl)propanamide], for which the IC50 is 36 nM.

For `O=C(C[C@@H](c1ccc(F)cc1)c1cc(F)cc(F)c1)Nc1cncc(F)c1CC[C@H]1CNCCN1C(=O)c1cccc(OC(F)(F)F)c1` [Example 346, (3S)-3-(3,5-difluorophenyl)-3-(4-fluorophenyl)-N-(5-fluoro-4-{2-[(2S)-1-{[3-(trifluoromethoxy)phenyl]carbonyl}piperazin-2-yl]ethyl}pyridin-3-yl)propanamide], the IC50 was 860 nM.

`COC(=O)N[C@H](C(=O)Nc1cncc(F)c1CC[C@H]1CNCCN1S(=O)(=O)N1CCCC1)[C@@H](c1ccc(F)cc1)c1cc(F)cc(F)c1` [Example 84, (βS)-3,5-difluoro-β-(4-fluorophenyl)-N-(5-fluoro-4-{2-[(2S)-1-(pyrroldin-1-ylsulfonyl)piperazin-2-yl]ethyl}pyridin-3-yl)-Nα-(methoxycarbonyl)-L-phenylalaninamide]: the IC50 worked out at 8.4 nM.

As to `C[C@H]1CNC[C@H](CCc2c(F)cccc2NC(=O)[C@@H](N)[C@@H](c2ccc(Cl)cc2)c2cc(F)cc(F)c2)N1S(C)(=O)=O` [Example 198, (βS)-4-chloro-β-(3,5-difluorophenyl)-N-(3-fluoro-2-{2-[(2S,6S)-6-methyl-1-(methylsulfonyl)piperazin-2-yl]ethyl}phenyl)-L-phenylalaninamide], the IC50 came out at 21 nM.

Consider `CC[C@H]1CNC[C@H](CCc2c(F)cccc2NC(=O)[C@@H](N)[C@@H](c2ccc(Cl)cc2)C2CCOCC2)N1S(C)(=O)=O` [Example 224, (βR)-4-chloro-N-(2-{2-[(2S,6S)-6-ethyl-1-(methylsulfonyl)piperazin-2-yl]ethyl}-3-fluorophenyl)-β-(tetrahydro-2H-pyran-4-yl)-L-phenylalaninamide], for which the IC50 stood at 90 nM.

In the case of `C[C@@H]1CNC[C@H](CCc2c(F)cccc2NC(=O)[C@@H](N)[C@@H](c2ccc(Cl)cc2)c2cccc(F)c2)N1S(=O)(=O)C1CC1` [Example 204, (βS)-4-chloro-N-(2-{2-[(2S,6R)-1-(cyclopropylsulfonyl)-6-methylpiperazin-2-yl]ethyl}-3-fluorophenyl)-β-(3-fluorophenyl)-L-phenylalaninamide], the IC50 came out at 80 nM.

`COC(=O)N[C@H](C(=O)Nc1cccc(F)c1CC[C@H]1CNC[C@@H](C)N1S(C)(=O)=O)[C@@H](c1ccc(Cl)cc1)C1CCOCC1` [Example 183, (βR)-4-chloro-N-(3-fluoro-2-{2-[(2S,6R)-6-methyl-1-(methylsulfonyl)piperazin-2-yl]ethyl}phenyl)-Nα-(methoxycarbonyl)-β-(tetrahydro-2H-pyran-4-yl)-L-phenylalaninamide]: the IC50 was 67 nM.

With `COc1ccc(S(=O)(=O)N2[C@@H](CCc3c(F)cncc3NC(=O)[C@@H](N)[C@@H](c3ccc(Cl)cc3)C3CCOCC3)CNC[C@@H]2C)cc1` [Example 9, (2S,3R)-2-Amino-3-(4-chlorophenyl)-N-(5-fluoro-4-(2-((2S,6S)-1-((4-methoxyphenyl)sulfonyl)-6-methylpiperazin-2-yl)ethyl)pyridin-3-yl)-3-(tetrahydro-2H-pyran-4-yl)propanamide], the IC50 worked out at 7.1 nM.

For the molecule `C[C@H]1CNC[C@H](CCc2c(F)cccc2NC(=O)[C@@H](N)[C@@H](Cc2ccc(F)cc2)c2ccc(Cl)cc2)N1S(=O)(=O)c1ccccc1` [Example 193, (βS)-4-chloro-β-(4-fluorobenzyl)-N-(3-fluoro-2-{2-[(2S,6S)-6-methyl-1-(phenylsulfonyl)piperazin-2-yl]ethyl}phenyl)-L-phenylalaninamide], the IC50 was found to be 56 nM.

Consider `N[C@H](C(=O)Nc1cccc(F)c1CC[C@@H]1CNCCN1S(=O)(=O)c1ccccc1)C(c1ccc(F)cc1)c1ccc(F)cc1` [Example 31, (S)-2-amino-N-(3-fluoro-2-(2-((R)-1-(phenylsulfonyl)piperazin-2-yl)ethyl)phenyl)-3,3-bis(4-fluorophenyl) propanamide], for which the IC50 was 850 nM.

For the molecule `COC(=O)N[C@H](C(=O)Nc1cccc(F)c1CC[C@H]1CNC[C@H](C)N1S(=O)(=O)C1CC1)[C@@H](c1ccc(Cl)cc1)C1CCOCC1` [Example 12, Methyl (1R,2S)-1-(4-chlorophenyl)-3-(2-(2-((2S,6S)-1-(cyclopropylsulfonyl)-6-methylpiperazin-2-yl)ethyl)-3-fluorophenylamino)-3-oxo-1-(tetrahydro-2H-pyran-4-yl)propan-2-ylcarbamate], the IC50 was determined as 18 nM.

In the case of `C[C@@H]1CNC[C@H](CCc2c(F)cccc2NC(=O)[C@@H](N)[C@@H](c2ccc(F)cc2)c2cc(F)cc(F)c2)N1S(=O)(=O)c1ccccc1Cl` [Example 230, (βS)-N-[2-(2-{(2S,6R)-1-[(2-chlorophenyl)sulfonyl]-6-methylpiperazin-2-yl}ethyl)-3-fluorophenyl]-β-(3,5-difluorophenyl)-4-fluoro-L-phenylalaninamide], the IC50 was determined as 290 nM.

The assay is the same for the next values; noted with them: MT4-GFP cells infected with HIV-1 H9IIIB; 50% normal human serum; mean of at least two independent experiments; read-out: Cell-based IP.
Consider `CN(CC1CC1)S(=O)(=O)N1CCNC[C@@H]1CCc1c(F)cccc1NC(=O)[C@@H](N)C(c1ccc(F)cc1)c1ccc(F)cc1` [Example 69], for which the IC50 turned out to be 360 nM.

Take `COC(=O)NC(C(=O)NC1CC1CC[C@H]1CNCCN1S(=O)(=O)c1ccccc1)C(c1ccc(F)cc1)c1ccc(F)cc1` (single isomer, unassigned) [Example 362]: the IC50 came to 76 nM.

The values above are taken from patent US9840478B2 (MERCK SHARP & DOHME CORP., priority 2013, dated 2017).
